The target in assay [1] is T1, purified H-2 K^b molecules (Mus musculus, UniProt P01901).
T1 construct: made in house
Description: MHC peptide-binding assay, purified H-2 K^b. The protocol: (§1) MHC purification and quantitative assays to measure the binding affinity of peptides to purified H-2 K^b and H-2 D^b molecules were performed as previously described (Sidney et al., Curr Protoc Immunol 18:1813 2001); Vitiello et al., J Immunol 157:5555 (1996)). Briefly, 0.1-1 nM of radiolabeled peptide was co-incubated at room temperature with 1 μM to 1 nM of purified MHC in the presence of 1-3 μM human β2-microglobulin (Scripps Laboratories) and a mixture of protease inhibitors. After a 2 day incubation, binding of the radiolabeled peptide to the corresponding MHC class I molecule was determined by capturing MHC/peptide complexes on Lumitrac 600 microplates (Greiner Bio-One) coated with either the Y3 (anti-H-2 K^b) or 28-14-8S (anti-H-2 D^b, L^d and D^q) Ab, followed by measurement of bound counts per minute (cpm) using the TopCount microscintillation counter (Packard).
To confirm the MHC class I restriction of the 12 identified epitopes, measurements were performed of their MHC binding capacity using purified K^b and D^b molecules in an in vitro binding assay. Seven of the 12 epitopes bound the predicted allele with either high or intermediate affinity, as indicated by an IC50 of <50 nM or <500 nM, respectively. The five remaining epitopes also bound with biologically relevant affinities in the 500-2000 nM range.

In assay [2] the test system is CD8^+ T cells. Description: Intracellular cytokine staining (IFN-γ), splenocytes of S221-infected wild-type mice. Type of assay: cell-based, C57BL/6 mice. Conditions: wild-type C57BL/6, day 7 after 10^11 GE S221, peptide 0.1 μg/ml, 5 h. The procedure: (§2) All Ab were purchased from eBioscience with the exception of anti-CD8α-PerCP and anti-CD107a-FITC which were obtained from BD Biosciences. RBC in blood were lysed using RBC lysis buffer (eBioscience). For surface staining, splenocytes or blood cells were washed, incubated with supernatant from 2.4G2-producing hybridoma cells to block Fc receptors, and labeled with anti-CD8α-PerCP, anti-CD44-APC, and anti-CD62L-PE. For intracellular cytokine staining, 10^6 splenocytes or 10^5 blood cells were plated in 96-well U-bottom plates and stimulated with individual DENV peptides (0.1 μg/ml) in the presence of brefeldin A (GolgiPlug, BD Biosciences) for 5 h. For CD107a staining, CD107a-FITC (or rat IgG2a-FITC) was added to the wells at the same time as the peptide. Cells were washed, incubated with 2.4G2 supernatant, labeled with anti-CD8α-PerCP, fixed and permeabilized using the BD Cytofix/Cytoperm Kit, and stained with anti-IFN-γ-APC and anti-TNF-α-PE. Samples were read on a FACS Caliber (BD Biosciences) and analyzed using FloJo software (Tree Star, Inc.)
To confirm that the IFN-γ response to the MHC class I-binding DENV peptides was mediated by CD8^+ T cells, intracellular cytokine staining (ICS) on CD8^+ T cells isolated from S221-infected wild-type mice was performed. Splenocytes were harvested from C57BL/6 mice 7 days after infection with 10^11 genomic equivlalents (GE) S221 and were re-stimulated in vitro with individual DENV2 peptides or an irrelevant peptide (irr) at 0.1 μg/ml in the presence of brefeldin A for 5 h. Cells were then stained for surface CD8 and intracellular IFN-γ and analyzed by flow cytometry. […] The percent of CD8^+ T cells producing IFN-γ is indicated. Referring to FIG. 2B, the figure is a summary of the DENV2-specific CD8^+ IFN-γ^+ response. The response to the irrelevant control peptide was subtracted from the responses to each DENV2 peptide. Each symbol represents one mouse and the bar represents the geometric mean. The identification of the 12 positive peptides for S221 was confirmed by the intracellular cytokine staining (ICS) (FIG. 2A), and the response to the 8 most dominant peptides was determined (FIG. 2B). The responses ranged from 0.14% recognizing NS2A 36 to 9.8% of CD8^+ T cells recognizing NS4B 99.
Splenocytes were harvested from naïve C57BL/6 mice or mice 7 days after infection with 10^11 GE of S221. The percent of CD8^+ T cells expressing CD44 and CD62L was determined in four independent studies (FIG. 3A). On day 7 after infection, splenocytes were stimulated with the eight major DENV2 peptides (individually; at 0.1 μg/ml) in the presence of brefeldin A, and stained for surface CD8 and intracellular IFN-γ. The percent of CD8^+ T cells producing IFN-γ in response to the irrelevant control peptide was subtracted from the response to each DENV2 peptide to determine the net response. The net responses to the eight major DENV2 peptides were added to determine the percent of DENV2-specific CD44^hi, CD62^lo, and CD44^hiCD62L^lo CD8^+ T cells (FIG. 3B). The data are expressed as the mean percent±SEM of 11-14 mice tested in at least four independent experiments.

The target of assay [3] is T2, purified H-2 D^b molecules (Mus musculus, UniProt P01899).
T2 construct: made in house
Description: MHC peptide-binding assay, purified H-2 D^b. The protocol: as §1, with “Briefly,” for “MHC purification and quantitative assays to measure the binding affinity of peptides to purified H-2 K^b and H-2 D^b molecules were performed as previously described (Sidney et al., Curr Protoc Immunol 18:1813 2001); Vitiello et al., J Immunol 157:5555 (1996)). Briefly,”

In assay [4] the test system is CD8^+ T cells. Kind of assay: Intracellular cytokine staining (IFN-γ), splenocytes of S221-infected IFN-α/βR^−/− mice. Type of assay: cell-based. Conditions: day 7 after 10^10 GE S221. The protocol:
as §2
The S221-specific CD8^+ T cell response in the IFN-α/βR^−/− mice was studied. […]
The S221-specific CD8^+ T cell response in IFN-α/βR^−/− mice was further studied. […] Referring to FIGS. 5C, 5E and 5F, the number of splenic CD8^+ T cells in naïve (n=4) and infected (n=7) mice was measured (results described above). […] The data are expressed as the percent±SEM of seven mice tested in three independent experiments.
The initial epitope identification studies were performed in wild-type mice. […] Cells were then stained for surface CD8 and intracellular IFN-γ and analyzed by flow cytometry. […] Results are expressed as the mean±SEM of 13 wild-type and 7 IFN-α/βR^−/− mice were tested in at least three independent experiments. Referring FIGS. 8C and D, the figures show kinetics of the DENV-specific CD8^+ T cell response as determined by the study. […]

Assay [5] deals with DENV peptide-pulsed target cells. Description: In vivo cytotoxicity assay. Particulars: IFN-α/βR^−/− mice infected 7 days previously with 10^10 GE S221; 4 h after i.v. transfer; targets pulsed 0.5 μg/ml.
Assay [6] concerns CD8^+ T cells. Description: IFN-γ ELISPOT with CD8^+ T cells of DENV2-infected C57BL/6 mice. Particulars: PL046 or S221 infected C57BL/6 mice. Type of assay: cell-based.
For assay [7], the system named is CD8^+ T cells. Kind of assay: TNF-α and CD107a staining after peptide re-stimulation. Type of assay: cell-based, wild-type or IFN-α/βR^−/− mice. Particulars: splenocytes day 7 after S221 infection. The procedure: as §2
Because polyfunctional CD8^+ T cell responses are associated with protection (Harari et al., Immunol Rev 211:236 (2006)), the phenotype of the DENV-specific CD8^+ T cells in wild-type and IFN-α/βR^−/− mice was studied in more detail by measuring CD107a expression (CD107a, or LAMP-1, is expressed on the cell surface upon degranulation) and TNF-α production for two of the DENV-specific CD8^+ T cell populations, as described above. To collect the data, splenocytes harvested from wild-type or IFN-α/βR^−/− mice 7 days after infection with 10^11 or 10^10 GE of S221, respectively, were re-stimulated in vitro with C51-59, NS4B99-107, or an irrelevant peptide. An anti-CD107a Ab was added for the duration of the stimulation. Cells were then stained for surface CD8, intracellular IFN-γ and TNF-α, and analyzed by flow cytometry.

The mark [8] stands for this setting: purified MHC, radiolabeled peptide competition, read-out: Binding affinity (IC50 nM) H2-K^b.
Where [9] appears, read: purified MHC, radiolabeled peptide competition, read-out: Binding affinity (IC50 nM) H2-D^b.

Like-named read-outs stand apart in the source and are kept apart here. Ends that are not written are not given here.

T2 sequence (P61769 21-119): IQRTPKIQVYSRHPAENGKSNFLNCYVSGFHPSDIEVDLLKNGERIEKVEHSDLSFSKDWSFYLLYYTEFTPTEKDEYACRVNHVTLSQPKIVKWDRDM
T2 sequence (P01899 25-362): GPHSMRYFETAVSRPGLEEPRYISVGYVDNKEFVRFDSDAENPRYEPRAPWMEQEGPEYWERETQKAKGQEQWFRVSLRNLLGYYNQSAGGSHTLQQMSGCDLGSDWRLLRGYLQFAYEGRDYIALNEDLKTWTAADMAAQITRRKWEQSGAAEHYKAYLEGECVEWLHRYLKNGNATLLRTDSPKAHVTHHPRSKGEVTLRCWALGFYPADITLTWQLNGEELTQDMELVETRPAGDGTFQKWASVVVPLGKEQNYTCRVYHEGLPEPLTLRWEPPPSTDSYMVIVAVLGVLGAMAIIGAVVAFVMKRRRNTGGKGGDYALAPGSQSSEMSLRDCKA
T1 sequence (P61769 21-119): as the sequence (P61769 21-119) above
T1 sequence (P01901 22-369): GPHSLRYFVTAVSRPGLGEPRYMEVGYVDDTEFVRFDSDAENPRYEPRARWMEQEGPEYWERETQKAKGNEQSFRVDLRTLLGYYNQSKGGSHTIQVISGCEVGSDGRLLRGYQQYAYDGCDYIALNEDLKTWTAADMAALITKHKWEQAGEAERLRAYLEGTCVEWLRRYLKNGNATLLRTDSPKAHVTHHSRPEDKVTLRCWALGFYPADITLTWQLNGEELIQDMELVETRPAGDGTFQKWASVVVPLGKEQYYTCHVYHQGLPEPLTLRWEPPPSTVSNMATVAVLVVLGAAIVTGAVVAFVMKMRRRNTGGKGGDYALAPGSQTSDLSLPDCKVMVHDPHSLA

For the sequence RALIFILL [Epitope M60-67], the IC50 in assay [1] (setting [8]) is 22 nM; in assay [3] it was over 2000 nM. For the same sequence, the “percent of CD8^+ T cells producing IFN-γ / recognizing the peptide” value in assay [2] is 0.4%. Besides, the “% of splenic CD8^+ T cells recognizing the peptide” value in assay [4] was 11%.
RMLINRFTM [NS5237-45]: the IC50 in assay [1] was over 2000 nM; in assay [3] (setting [9]), 21 nM. Besides, the “percentage killing of peptide-pulsed target cells” value in assay [5] is 46%. In assay [6], the “IFN-γ ELISPOT response (net SFC per 10^6 CD8^+ T cells), in words” value is “highest responses”.
As for LAVTIMAIL [NS2A145-153], the figures for the IC50 in assay [1] and in assay [3] (setting [9]) were over 2000 nM and 644 nM, respectively.
Turning to TAIANQATV [NS4B66-74], the figures for the IC50 in assay [1] and in assay [3] (setting [9]) were over 2000 nM and 1.3 nM, respectively.
Regarding VAVSFVTLI [NS2A36-44], the IC50 stood at 12 nM in assay [1] (setting [8]) and 997 nM in assay [3] (setting [9]). Moreover, the “percent of CD8^+ T cells producing IFN-γ / recognizing the peptide” value in assay [2] is 0.14%.
As for VAFLRFLTI [Epitope C51-59], the IC50 in assay [1] (setting [8]) came out at 20 nM. The “IFN-γ ELISPOT response (net SFC per 10^6 CD8^+ T cells), in words” value in assay [6] is “highest responses”. Further, in assay [3] (setting [9]), the IC50 amounted to 1380 nM. In assay [7], the “CD107a surface expression (degranulation)” value is reported as “expressed CD107a on the surface” and the “TNF-α production by peptide-specific CD8^+ T cells” value is reported as “produced TNF-α”.
Consider MTMRCIGI [Epitope E-2-6], for which the IC50 was 1080 nM in assay [1] (setting [8]) and over 2000 nM in assay [3]. The “IFN-γ ELISPOT response (net SFC per 10^6 CD8^+ T cells), in words” value in assay [6] was “highest responses”.
For VSWTMKIL [Epitope E451-458], in assay [3], the IC50 is over 2000 nM.
Consider FSLGVLGM [NS2A8-15], for which the IC50 in assay [1] was over 2000 nM; in assay [3] (setting [9]), 1800 nM. Further, the “IFN-γ ELISPOT response (net SFC per 10^6 CD8^+ T cells), in words” value in assay [6] is recorded as “highest responses”.
GMLQGRGPL [Epitope C36-44]: the IC50 was determined as 1340 nM in assay [1] (setting [8]) and 820 nM in assay [3] (setting [9]).

In general, IC50 refers to the concentration that gives 50% inhibition.
